Data set [1] deals with FAP CAR-eDHFR direct fusion (DF). Kind of data set: Dose response of surface CAR expression in primary human FAP-eDHFR DF CAR T cells, flow cytometry. Format: cell-based. The conditions noted are these: for degradation / downregulation of CAR molecules from the surface of CAR T cells: primary human FAP-eDHFR CAR T cells. The method, then:
Generated CAR T cells were pelleted, resuspended in 2% BSA in PBS (Invitrogen), and incubated with Alexa Fluor® 647 AffiniPure F(ab′2) fragment goat anti-mouse IgG (Jackson ImmunoResearch Laboratories) for 30 minutes at room temperature. Stained cells were washed 3 times with PBS, and were analyzed on a flow cytometer (LSR II, BD Biosciences) for CAR and/or BFP expression. All flow data were analyzed using FlowJo software (FlowJo).
Following incubation, the cells were washed and stained with Alexa Fluor® 647 AffiniPure F(ab′2) fragment goat anti-mouse IgG (Jackson ImmunoResearch Laboratories) as described under “Flow Cytometry”, and their surface expression was analyzed on a flow cytometer (LSR II, BD Biosciences).
(§1) Data plotted as raw CAR stain fluorescence is shown in the left panel and percent of maximum CAR expression is shown in the right panel.
Values are reported as percent of maximum CAR expression (i.e. relative to CAR T cells that were treated with vehicle control). Each color represents a different donor (n=3).

Another data set has as its system FAP-eDHFR DF CAR T cells. Kind of data set: In vitro killing assay of FAP-eDHFR DF CAR T cells against I45 huFAP-Luc target cells.
A further data set concerns eDHFR-Lck fusion protein. Kind of data set: Dose response in HEK293T eDHFR-Lck cells, Western blot. It is filed as cell-based, Escherichia coli. To be noted: 24 h. (In general: In western blotting, separated proteins are transferred to a membrane and probed.)
Data set [2] relates to eDHFR-Luc. Kind of data set: Degradation of luciferase in Jurkat-DL cells, luminescence. Format: cell-based, Escherichia coli. The conditions noted are these: 4, 8 and 18 h, varying doses.
Data set [3] deals with FAP CAR-eDHFR fusion protein. Kind of data set: CAR downregulation in Jurkat cells expressing FAP CAR-eDHFR fusion protein, flow cytometry. It is filed as cell-based, Escherichia coli. To be noted: serial time points.
From the text: as §1
Background: A flow cytometer gives signals particle by particle.

Data set [4] deals with eDHFR-YFP. In words: Washout experiment, reversal of YFP degradation in Jurkat eDHFR-YFP+ cells, flow cytometry. Format: cell-based, Escherichia coli. To be noted: 100 nM, washout after 24 h. Here is the method: Jurkat^eDHFR-YFP+ cells were seeded in a clear (Falcon) 12-well plate (3×10^5 cells/well) in complete media and incubated overnight. The following day, all wells were dosed with 100 nM of 7c, and cells were sampled at 0, 4, 8, 12, and 24 h following incubation (1 well was sampled per time point). Following 24 h incubation, remaining wells of cells were collected and centrifuged (Thermo Scientific Sorvall Legend X1R) at 1200 rpm for 5 minutes. Cells were washed 3 times with PBS and seeded on a new clear (Falcon) 12-well plate in fresh complete media. The cells were sampled at 3, 6, 24, 48, and 72 h following the drug washout. All cells were fixed in 4% PFA following sampling, and all samples from […] were analyzed together on a flow cytometer (BD).

The test system of data set [5] is eDHFR-YFP. Kind of data set: Time and dose-dependent degradation of YFP in Jurkat-DYL / Jurkat eDHFR-YFP+ cells, flow cytometry. Format: cell-based, Escherichia coli. Here is the method: Likewise, Jurkat eDHFR-YFP (Jurkat^eDHFR-YFP+) cells are seeded in clear (Falcon) 12-well plates (3×10^5 cells/well) in complete media. […]
In a further data set the test system is IFNγ. Kind of data set: Cytokine release assay, IFNγ ELISA of killing assay supernatant. It is filed as cell-based, human. The conditions noted are these: for T cell IFNγ release / secretion: supernatant of killing assay, 100 nM compound. Here is the method:
(§2) The concentration of TNF-α and IFN-g in the supernatants following killing assay was determined by ELISA.
A general note: An ELISA detects its analyte on a solid surface through an enzyme-linked reagent.

The test system of data set [6] is eDHFR-Luc. Kind of data set: Time course in OVCAR8 eDHFR-Luc cells, luminescence. It is filed as cell-based, Escherichia coli. To be noted: between 390 and 24 nM. Here is the method: OVCAR8^eDHR-luc+ cells were plated in black wall/clear bottom (Falcon) 96-well plates (4×10^4 cells/well) in 200 uL of complete media and incubated with serially diluted compound 7c at −48, −24, −12, −8 and −4 h and analyzed together at 0 h (t=0). Luciferin is prepared to 1× with complete media and 50 uL of Luciferin solution is added to the cells which are then analyzed by plate reader (ThermoFisher Varioskan Plusplate).
After the addition of Luciferin/complete media solution, luminescence was measured at the same time (t=0) by plate reader. 90% degradation of eDHFR-luc measured in 12 h between 390 and 24 nM, and 95% degradation of eDHFR-luc measured in 24 h between 390 and 24 nM.

In data set [7] the test system is FAP CAR-eDHFR direct fusion (DF). In words: Inhibitor test in primary human FAP-eDHFR DF CAR T cells, flow cytometry. To be noted: primary human FAP-eDHFR DF CAR T cells. Format: cell-based. The method, then: Following pre-incubation, either 100 nM 7c or vehicle control DMSO (Sigma) was added to the wells, and cells were incubated with the drug for another 4 hours. Following incubation, the cells were washed and their surface CAR expression was assessed on a flow cytometer (BD Biosciences).
Following pre-incubation, the cells were incubated with 100 nM 7c for 4 hours and their CAR expression was assessed on a flow cytometer.

Data set [8] has the same test system. In words: Washout kinetic assay of CAR expression in primary human FAP-eDHFR DF CAR T cells. It is filed as cell-based. The conditions noted are these: 100 nM, washout after 24 h. Here is the method:
Following a 24 hour incubation with TMP-POM 7c, the remaining cells were washed multiple times with […] (Corning) to remove the drug, returned to culture in a new 12-well plate, and then again sampled serially at different time points following the wash (3, 6, 24, 48, and 72 hours post-washout). All cells were stained for CAR and fixed in 4% following sampling, and were analyzed on a flow cytometer (LSR II, BD Biosciences).
Following 24-hour incubation with TMP-POM 7c, the cells were washed multiple times to remove the drug (red arrow), seeded on a new plate, and then again sampled serially following the drug washout. All cells were stained for CAR and fixed in 4% following sampling.

The subject of data set [9] is eDHFR-Luc. Kind of data set: Degradation of luciferase in HEK293T-DL cells, luminescence. To be noted: 12 and 24 h, varying doses. It is filed as cell-based, Escherichia coli.
Another data set relates to TNFα. In words: Cytokine release assay, TNFα ELISA of killing assay supernatant. It is filed as cell-based, human. The method, then:
as §2

The mark [10] stands for this setting: different concentrations, 10:1 E:T.

`COc1cc(Cc2cnc(N)nc2N)cc(OC)c1OCCCC(=O)NCCOCCOCCNc1cccc2c1C(=O)N(C1CCC(=O)NC1=O)C2=O` (stereo not shown) [Compound 7c, 4-(4-((2,4-diaminopyrimidin-5-yl)methyl)-2,6-dimethoxyphenoxy)-N-(2-(2-(2-((2-(2,6-dioxopiperidin-3-yl)-1,3-dioxoisoindolin-4-yl)amino)ethoxy)ethoxy)ethyl)butanamide]: in data set [1] (as early as 4 hours post-incubation, relative to vehicle control), the “CAR expression remaining, percent of maximum CAR expression” value is 20 % of maximum CAR expression. Also, the “degradation / downregulation of CAR molecules from the surface of CAR T cells” value in data set [1] was “leads to degradation of CAR molecules from the surface of CAR T cells”; in [1] (listed as TMP-POM 7c), “effectively downregulates CAR in a dose-dependent and reversible manner”. The “cytotoxic function of FAP-eDHFR CAR T cells against FAP-expressing target cells” value in the data set on FAP-eDHFR DF CAR T cells (CAR T cells pre-incubated 24 h with 100 nM compound, varying E:T ratios) is recorded as “inhibition of their cytotoxic function”. Further, in the data set on FAP-eDHFR DF CAR T cells (pre-incubated overnight at different concentrations, 10:1 E:T), the “cytotoxic activity of FAP-eDHFR DF CAR T cells across concentrations” value is given as “tunable in a dose-dependent manner”. Further, in the data set on eDHFR-Lck fusion protein, the “concentration of optimal degradation of eDHFR-Lck fusion protein” value was 97 nM. Besides, the degradation of luciferase entry with eDHFR-Luc [2] and in the data set on eDHFR-Luc [9] was “degraded” each time. Besides, the “degradation of CAR molecules from the surface of Jurkat cells” value in [3] is recorded as “leads to degradation of CAR molecules from the surface of Jurkat cells”. Besides, in the data set with eDHFR-YFP [4], the “time to full return of YFP expression to baseline following drug washout” value is on record as “approximately 72 h”. Besides, the “YFP remaining, % of maximum (no drug control)” value in the data set with eDHFR-YFP [5] (Jurkat eDHFR-YFP+, as early as 4 h) is recorded as 20 % of maximum. The “degradation of YFP (eDHFR fusion protein)” value in the data set with eDHFR-YFP [5] (Jurkat-DYL, 4, 8 and 18 h incubation, varying doses) is on record as “degrade eDHFR fusion proteins to low/no functional expression”. In addition, in the data set with IFNγ (setting [10]), the “IFNγ secretion across concentrations” value was “inhibition of CAR T cell signaling”. The entries for the “T cell IFNγ release / secretion” value in the data set on IFNγ and with IFNγ (listed as TMP-POM 7c) were “inhibits” and “inhibition of CAR T cell signaling”, respectively. Moreover, the “degradation of eDHFR-luc” value came out at 90% with eDHFR-Luc [6] (12 h) and 95% in the data set with eDHFR-Luc [6] (24 h). Further, in [7], the “mechanism of CAR downregulation” value was “proteosome-mediated degradation process”. For the same molecule, in data set [8], the “time following washout for CAR expression to return to baseline” value is approximately 72 h. In [8], the “time following washout for CAR expression to start recovering” value is on record as “around 24 hours”. In addition, the “TNFα secretion across concentrations” value in the data set on TNFα (setting [10]) was “inhibition of CAR T cell signaling”. Moreover, in the data set on TNFα (supernatant of killing assay, 100 nM compound), the “T cell TNF-α release” value was “inhibits”.

For the origin of these results see US20240226100A1, “CONTROL OF PROTEIN EXPRESSION WITH TMP-PROTAC COMPOUNDS” (THE TRUSTEES OF THE UNIVERSITY OF PENNSYLVANIA, priority 2021, published 2024).
